Test systems include SK-MEL-28 melanoma; UACC-62 melanoma; RPMI-8226 leukemia; A549 NSCLC; UO-31 renal; MOLT-4 leukemia; HCT-116 colon; PC-3 prostate; MDA-MB-435; MDA-MB-231 breast.
Assay in all cases: inhibition of tumour cell growth, NCI panel, 48 h

Structures are written as SMILES.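 Method: 48-hour compound exposure of cells in 96-well plates, five concentrations, linear interpolation of endpoints. Abbreviation: GI50, concentration required for 50% inhibition of growth. TGI: concentration producing complete growth inhibition.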 Where only a bound is given, the exact number is not on record here.

For `O=C(O)CCNS(=O)(=O)c1ccc(NC(=O)c2ccccc2)cc1`, the TGI in the test on SK-MEL-28 melanoma, in the test on UACC-62 melanoma, in the test on RPMI-8226 leukemia, with A549 NSCLC, in the test with UO-31 renal and in the test with MOLT-4 leukemia was more than 100 µM in each case.

As to `CCc1cccc(C)c1NS(=O)(=O)c1ccccc1`, the TGI with SK-MEL-28 melanoma, in the test with UACC-62 melanoma, with RPMI-8226 leukemia, in the test with A549 NSCLC, with UO-31 renal and in the test with MOLT-4 leukemia was more than 100 µM each time. The molecule also had a TGI in the test on HCT-116 colon of more than 100 µM.

With `C[N+](C)(C)CCC(=O)CC[N+](C)(C)C`, the TGI with SK-MEL-28 melanoma was 50.1 µM; in the test on UACC-62 melanoma, 41.4 µM; in the test with RPMI-8226 leukemia it was 21.6 µM; in the test with A549 NSCLC it was more than 100 µM; in the test with UO-31 renal it was more than 100 µM; in the test on MOLT-4 leukemia it was 19.5 µM. This molecule came in with a TGI in the test with HCT-116 colon of 33.7 µM.

On to `Cc1nc(C(N)=O)c(N)n1CCN1CCN(C(=O)CCCCCCCCCCNC2N=CNc3nc[nH]c32)CC1` (centres undefined), for which the TGI in the test on SK-MEL-28 melanoma is 79.1 µM; in the test on UACC-62 melanoma, more than 100 µM; with A549 NSCLC it was more than 100 µM; in the test with UO-31 renal, more than 100 µM; with MOLT-4 leukemia, 47.6 µM; in the test on HCT-116 colon, more than 100 µM.

Take `O=C(NCCCOC(=O)CCCCCCCCC(=O)OCCCNC(=O)NC(=O)c1c[nH]c(=O)[nH]c1=O)NC(=O)c1c[nH]c(=O)[nH]c1=O`: the TGI in the test on SK-MEL-28 melanoma, in the test with UACC-62 melanoma, in the test with RPMI-8226 leukemia, with A549 NSCLC, in the test with MOLT-4 leukemia and in the test with HCT-116 colon was more than 100 µM throughout.

For `CCOC(=O)Cc1nc2ccc3c(c2[nH]c1=O)C(=O)c1ccccc1C3=O`, the TGI with SK-MEL-28 melanoma is more than 100 µM; in the test with UACC-62 melanoma it was more than 100 µM; in the test on RPMI-8226 leukemia, more than 100 µM; in the test with A549 NSCLC it was more than 100 µM; in the test on UO-31 renal, more than 100 µM; in the test with MOLT-4 leukemia, 54.2 µM. In the test on HCT-116 colon, this molecule had a TGI of more than 100 µM.

Take `O=c1cc(-c2cccs2)[nH]c2cc3c(cc12)OCO3`: the TGI is more than 100 µM in the test with SK-MEL-28 melanoma; more than 25 µM with UACC-62 melanoma; more than 100 µM in the test on RPMI-8226 leukemia; more than 100 µM in the test on A549 NSCLC; more than 100 µM with UO-31 renal; more than 100 µM in the test with MOLT-4 leukemia. This molecule came in with a TGI in the test with HCT-116 colon of more than 100 µM.

In the case of `CC1=C(C(=O)Nc2ccccc2C)C(c2ccc(Cl)cc2)C(C(=O)Nc2ccccc2C)=C(C)N1`, the TGI in the test on SK-MEL-28 melanoma, in the test with UACC-62 melanoma, in the test with RPMI-8226 leukemia, in the test on A549 NSCLC, in the test on UO-31 renal and with MOLT-4 leukemia was more than 100 µM each time. The TGI in the test on HCT-116 colon is more than 100 µM.

Regarding `C[C@@H](NC(C#N)c1ccco1)c1ccccc1` (some centres undefined), the TGI in the test with SK-MEL-28 melanoma, in the test on PC-3 prostate, in the test on UACC-62 melanoma, with RPMI-8226 leukemia, in the test with A549 NSCLC and in the test with UO-31 renal was more than 100 µM throughout. For the same molecule, the TGI in the test on MOLT-4 leukemia, with MDA-MB-435 and in the test on HCT-116 colon was more than 100 µM each time.

Take `O=C1CC(CC(=O)C2CCCCC2=O)C(=O)N1` (centres undefined): the TGI in the test on SK-MEL-28 melanoma, in the test on UACC-62 melanoma, in the test with RPMI-8226 leukemia, with A549 NSCLC, in the test on UO-31 renal and in the test on HCT-116 colon was more than 100 µM throughout.

On to `CCSC1=NC2C(N(CC)C(=O)N2CC)N1/N=C/C=C/c1ccccc1[N+](=O)[O-]` (centres undefined), for which the GI50 in the test on MDA-MB-231 breast was 0.312 µM; in the test on SK-MEL-28 melanoma it was 5.83 µM; with PC-3 prostate, 0.187 µM; in the test with UACC-62 melanoma, 0.0604 µM; in the test on RPMI-8226 leukemia it was 0.334 µM; in the test with A549 NSCLC it was 0.307 µM. For the same molecule, the GI50 was 0.664 µM in the test on UO-31 renal, 0.419 µM with MOLT-4 leukemia and 0.114 µM in the test on HCT-116 colon. In addition, the TGI is more than 100 µM in the test on SK-MEL-28 melanoma; more than 100 µM in the test with PC-3 prostate; more than 100 µM in the test on UACC-62 melanoma; more than 34.1 µM with RPMI-8226 leukemia; more than 100 µM in the test on A549 NSCLC; more than 100 µM in the test on UO-31 renal. In addition, the TGI with MOLT-4 leukemia and with HCT-116 colon was more than 100 µM each time.

For `O=C1C[C@H]2CCCN2[C@@H](c2ccccc2)C1`, the TGI in the test on SK-MEL-28 melanoma, in the test on UACC-62 melanoma, in the test with RPMI-8226 leukemia, in the test with A549 NSCLC, in the test on UO-31 renal and with MOLT-4 leukemia was more than 100 µM in each case. Besides, in the test on HCT-116 colon, the TGI is more than 100 µM.

For the molecule `COC1=NCc2ccccc2-c2ccccc21`, the TGI in the test with SK-MEL-28 melanoma, in the test with UACC-62 melanoma, with A549 NSCLC, in the test on UO-31 renal, in the test with MOLT-4 leukemia and in the test with HCT-116 colon was more than 100 µM throughout.

As to `COc1cc(Cl)cc(=O)c(O)c1OC`, the TGI is more than 100 µM in the test with SK-MEL-28 melanoma; 70.7 µM with UACC-62 melanoma; more than 100 µM with RPMI-8226 leukemia; more than 100 µM in the test with UO-31 renal; more than 100 µM with MOLT-4 leukemia; more than 100 µM with HCT-116 colon.

Turning to `CN(C)CCNC(=O)Cn1ccc(=O)c2cc([N+](=O)[O-])ccc21`, the TGI with SK-MEL-28 melanoma, in the test on PC-3 prostate, in the test with UACC-62 melanoma, in the test with RPMI-8226 leukemia, in the test on A549 NSCLC and in the test with UO-31 renal was more than 100 µM each time. Moreover, the TGI in the test with MOLT-4 leukemia, in the test with MDA-MB-435 and with HCT-116 colon was more than 100 µM in each case.

As for `CC(=O)c1c(O)c(C)c(O)c(Cc2c(O)c3c(c(C(=O)/C=C/c4ccccc4)c2O)OC(C)(C)C=C3)c1O`, the TGI is 6.86 µM in the test on MDA-MB-231 breast; 14.9 µM with SK-MEL-28 melanoma; 5.18 µM in the test on PC-3 prostate; 10 µM with UACC-62 melanoma; more than 100 µM in the test with RPMI-8226 leukemia; 5.13 µM with A549 NSCLC. In addition, the TGI with UO-31 renal came to 8.19 µM; in the test on MOLT-4 leukemia it was 16.8 µM; in the test on HCT-116 colon it was 10.2 µM.

For the molecule `COC(=O)c1sc(C(=O)OC)c2c1CS(=O)C2`, the TGI with SK-MEL-28 melanoma, with UACC-62 melanoma, in the test on RPMI-8226 leukemia, with A549 NSCLC, in the test with UO-31 renal and with MOLT-4 leukemia was more than 100 µM each time. The molecule further yielded a TGI with HCT-116 colon of more than 100 µM.

(Values after PubChem BioAssay (NCI).)
